Test results reported in ChEMBL document CHEMBL5303573, “Mapping human microbiome drug metabolism by gut bacteria and their genes” (Nature, 2019).

What was measured:
[1] = The drug is tested on Dorea formicigenerans strain: ATCC27755 for biotransformation. The drug concentrations were measured before and after a 12-h incubation by liquid-chromatography-coupled mass spectrometry (LC–MS); settings: 2 µM
[2] = The drug is tested on Bifidobacterium longum subsp. Infantis strain: CCUG52486 for biotransformation. The drug concentrations were measured before and after a 12-h incubation by liquid-chromatography-coupled mass spectrometry (LC–MS); settings: 2 µM
[3] = anaerostipes sp., 12 h, 2 µM
Description: The drug is tested on Anaerostipes sp. strain: fecal isolate for biotransformation. The drug concentrations were measured before and after a 12-h incubation by liquid-chromatography-coupled mass spectrometry (LC–MS)

[4] = The drug is tested on Anaerotruncus colihominis strain: DSM17241 for biotransformation. The drug concentrations were measured before and after a 12-h incubation by liquid-chromatography-coupled mass spectrometry (LC–MS); settings: 2 µM
[5] = The drug is tested on Ruminococcus gnavus strain: ATCC29149 for biotransformation. The drug concentrations were measured before and after a 12-h incubation by liquid-chromatography-coupled mass spectrometry (LC–MS); settings: mediterraneibacter gnavus, 2 µM
[6] = The drug is tested on Bacteroides vulgatus strain: ATCC8482 for biotransformation. The drug concentrations were measured before and after a 12-h incubation by liquid-chromatography-coupled mass spectrometry (LC–MS); settings: phocaeicola vulgatus, 2 µM
[7] = The drug is tested on Clostridium scindens strain: ATCC35704 for biotransformation. The drug concentrations were measured before and after a 12-h incubation by liquid-chromatography-coupled mass spectrometry (LC–MS); settings: 2 µM
[8] = bifidobacterium adolescentis, 12 h, 2 µM
Description: The drug is tested on Bifidobacterium adolescentis strain: ATCC 15703 for biotransformation. The drug concentrations were measured before and after a 12-h incubation by liquid-chromatography-coupled mass spectrometry (LC–MS)

[9] = The drug is tested on Clostridium sp. strain: fecal isolate for biotransformation. The drug concentrations were measured before and after a 12-h incubation by liquid-chromatography-coupled mass spectrometry (LC–MS); settings: 2 µM
[10] = The drug is tested on Collinsella aerofaciens strain: ATCC25986 for biotransformation. The drug concentrations were measured before and after a 12-h incubation by liquid-chromatography-coupled mass spectrometry (LC–MS); settings: 2 µM
[11] = The drug is tested on Parabacteroides merdae strain: ATCC43184 for biotransformation. The drug concentrations were measured before and after a 12-h incubation by liquid-chromatography-coupled mass spectrometry (LC–MS); settings: 2 µM
[12] = parabacteroides johnsonii, 12 h, 2 µM
Description: The drug is tested on Parabacteroides johnsonii strain: DSM18315 for biotransformation. The drug concentrations were measured before and after a 12-h incubation by liquid-chromatography-coupled mass spectrometry (LC–MS)

[13] = The drug is tested on Bifidobacterium ruminantium strain: fecal isolate for biotransformation. The drug concentrations were measured before and after a 12-h incubation by liquid-chromatography-coupled mass spectrometry (LC–MS); settings: 2 µM
[14] = bacteroides thetaiotaomicron, 12 h, 2 µM
Description: The drug is tested on Bacteroides thetaiotaomicron strain: VPI-5482 for biotransformation. The drug concentrations were measured before and after a 12-h incubation by liquid-chromatography-coupled mass spectrometry (LC–MS)

[15] = The drug is tested on Ruminococcus torques strain: ATCC27756 for biotransformation. The drug concentrations were measured before and after a 12-h incubation by liquid-chromatography-coupled mass spectrometry (LC–MS); format: ADME; design: dose 2 uM, timepoint 0 vs 12 hours; settings: 2 µM
[16] = bacteroides fragilis, 12 h, 2 µM
Description: The drug is tested on Bacteroides fragilis strain: DS-208 for biotransformation. The drug concentrations were measured before and after a 12-h incubation by liquid-chromatography-coupled mass spectrometry (LC–MS)

[17] = The drug is tested on Bacteroides caccae strain: ATCC43185 for biotransformation. The drug concentrations were measured before and after a 12-h incubation by liquid-chromatography-coupled mass spectrometry (LC–MS); settings: 2 µM
[18] = The drug is tested on Ruminococcus lactaris strain: ATCC29176 for biotransformation. The drug concentrations were measured before and after a 12-h incubation by liquid-chromatography-coupled mass spectrometry (LC–MS); settings: 2 µM
[19] = bacteroides intestinalis, 12 h, 2 µM
Description: The drug is tested on Bacteroides intestinalis strain: DSM17393 for biotransformation. The drug concentrations were measured before and after a 12-h incubation by liquid-chromatography-coupled mass spectrometry (LC–MS)

[20] = The drug is tested on Bacteroides cellulosilyticus strain: DSM14838 for biotransformation. The drug concentrations were measured before and after a 12-h incubation by liquid-chromatography-coupled mass spectrometry (LC–MS); settings: 2 µM

SMILES | Bacterial Biotransformation [1] | Bacterial Biotransformation [2] | Bacterial Biotransformation [3] | Bacterial Biotransformation [4] | Bacterial Biotransformation [5] | Bacterial Biotransformation [6] | Bacterial Biotransformation [7] | Bacterial Biotransformation [8] | Bacterial Biotransformation [9] | Bacterial Biotransformation [10] | Bacterial Biotransformation [11] | Bacterial Biotransformation [12] | Bacterial Biotransformation [13] | Bacterial Biotransformation [14] | Bacterial Biotransformation [15] | Bacterial Biotransformation [16] | Bacterial Biotransformation [17] | Bacterial Biotransformation [18] | Bacterial Biotransformation [19] | Bacterial Biotransformation [20]
O=C([O-])C[C@H](O)C[C@H](O)/C=C/c1c(C2CC2)nc2ccccc2c1-c1ccc(F)cc1.O=C([O-])C[C@H](O)C[C@H](O)/C=C/c1c(C2CC2)nc2ccccc2c1-c1ccc(F)cc1.[Ca+2] [PITAVASTATIN CALCIUM] | Compound NOT metabolized | Compound NOT metabolized | Compound NOT metabolized | Compound NOT metabolized | Compound NOT metabolized | Compound NOT metabolized | Compound NOT metabolized | Compound NOT metabolized | Compound NOT metabolized | Compound NOT metabolized | Compound NOT metabolized | Compound NOT metabolized | Compound NOT metabolized | Compound NOT metabolized | Compound NOT metabolized | Compound NOT metabolized | Compound NOT metabolized | Compound NOT metabolized | Compound NOT metabolized | –
CC(CN1c2ccccc2Sc2ccccc21)N(C)C (configuration not stated) [PROMETHAZINE] | Compound NOT metabolized | Compound NOT metabolized | Compound NOT metabolized | Compound NOT metabolized | Compound NOT metabolized | Compound NOT metabolized | Compound NOT metabolized | Compound NOT metabolized | – | Compound NOT metabolized | Compound NOT metabolized | Compound NOT metabolized | – | Compound NOT metabolized | Compound NOT metabolized | Compound NOT metabolized | Compound NOT metabolized | – | Compound NOT metabolized | Compound NOT metabolized
OC(c1cc(C(F)(F)F)nc2c(C(F)(F)F)cccc12)C1CCCCN1 (configuration not stated) [MEFLOQUINE] | Compound NOT metabolized | Compound NOT metabolized | Compound NOT metabolized | – | Compound NOT metabolized | Compound NOT metabolized | Compound NOT metabolized | Compound NOT metabolized | – | Compound NOT metabolized | Compound NOT metabolized | Compound NOT metabolized | – | Compound NOT metabolized | – | – | Compound NOT metabolized | – | Compound NOT metabolized | Compound NOT metabolized
CCCN(CCC)CCc1cccc2c1CC(=O)N2 [ROPINIROLE] | Compound NOT metabolized | Compound NOT metabolized | Compound NOT metabolized | Compound NOT metabolized | Compound NOT metabolized | Compound NOT metabolized | Compound NOT metabolized | Compound NOT metabolized | – | Compound NOT metabolized | Compound NOT metabolized | Compound NOT metabolized | – | – | Compound NOT metabolized | Compound NOT metabolized | – | Compound NOT metabolized | Compound NOT metabolized | Compound NOT metabolized
CNS(=O)(=O)Cc1ccc2[nH]cc(CCN(C)C)c2c1.O=C(O)CCC(=O)O [SUMATRIPTAN SUCCINATE] | Compound NOT metabolized | Compound NOT metabolized | Compound NOT metabolized | Compound NOT metabolized | Compound NOT metabolized | Compound NOT metabolized | Compound NOT metabolized | Compound NOT metabolized | Compound NOT metabolized | Compound NOT metabolized | Compound NOT metabolized | Compound NOT metabolized | Compound NOT metabolized | Compound metabolized | Compound NOT metabolized | Compound metabolized | Compound NOT metabolized | Compound NOT metabolized | Compound NOT metabolized | –
CCN(CC)CCCC(C)Nc1c2ccc(Cl)cc2nc2ccc(OC)cc12 (configuration not stated) [QUINACRINE] | Compound NOT metabolized | Compound NOT metabolized | Compound NOT metabolized | Compound NOT metabolized | – | Compound NOT metabolized | – | Compound NOT metabolized | – | Compound NOT metabolized | Compound NOT metabolized | – | – | Compound NOT metabolized | Compound NOT metabolized | Compound NOT metabolized | – | – | Compound NOT metabolized | Compound NOT metabolized
COc1ccc(C(CN(C)C)C2(O)CCCCC2)cc1 (configuration not stated) [VENLAFAXINE] | Compound NOT metabolized | Compound NOT metabolized | Compound NOT metabolized | Compound NOT metabolized | Compound NOT metabolized | Compound NOT metabolized | Compound NOT metabolized | Compound NOT metabolized | Compound NOT metabolized | Compound NOT metabolized | Compound NOT metabolized | Compound NOT metabolized | Compound NOT metabolized | Compound NOT metabolized | Compound NOT metabolized | Compound NOT metabolized | Compound NOT metabolized | Compound NOT metabolized | Compound NOT metabolized | –
